Results: PubChem BioAssay AID330 (DTP/NCI, 2004)
Values joined by “and” are separate entries in the source; they are usually repeats but may differ in a detail not shown here. Equal values may be shown once. Toxic doses and inconclusive results are not listed. How the source made its calls: active means survival T/C of 150% or more; inactive means T/C below 125% in these data.

Test system: P388 leukemia ip, CD2F1 mice, survival T/C
Assay: NCI In Vivo Anticancer Drug Screen. Data for tumor model P388 Leukemia (intraperitoneal) in CD2F1 (CDF1) mice
Details: endpoint: median survival time, higher = longer survival
Summary of the method: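 Mice carrying the transplanted tumor received test compound or vehicle. Survival was recorded in each group, and the value is the treated-group measurement divided by that of the vehicle-treated control group.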

[1] = dose: 60.0 mg/kg/injection, schedule: Q01DX005 (ip), vehicle: saline with Tween-80
[2] = dose: 120.0 mg/kg/injection, schedule: Q01DX005 (ip), vehicle: saline with Tween-80
[3] = dose: 50.0 mg/kg/injection, schedule: Q01DX001 (ip), vehicle: Klucel (hydroxypropylcellulose) (HPC)
[4] = dose: 100.0 mg/kg/injection, schedule: Q01DX001 (ip), vehicle: Klucel (hydroxypropylcellulose) (HPC)
[5] = dose: 200.0 mg/kg/injection, schedule: Q01DX001 (ip), vehicle: Klucel (hydroxypropylcellulose) (HPC)
[6] = dose: 50.0 mg/kg/injection, schedule: Q01DX005 (ip), vehicle: Klucel (hydroxypropylcellulose) (HPC)
[7] = dose: 100.0 mg/kg/injection, schedule: Q01DX005 (ip), vehicle: Klucel (hydroxypropylcellulose) (HPC)
[8] = dose: 200.0 mg/kg/injection, schedule: Q01DX005 (ip), vehicle: Klucel (hydroxypropylcellulose) (HPC)

Measured: T/C

CCc1ccc2ccc3ccc(CC)nc3c2n1
inactive: [1] 106 % of control | [2] 102 % of control | dose: 240.0 mg/kg/injection, schedule: Q01DX005 (ip), vehicle: saline with Tween-80 99 % of control

C[N+]1=Nc2cccc3cccc(c23)[N-]1
inactive: [3] 111 % of control | [4] 102 % of control | [5] 100 % of control

Nc1ncc(NCCCNc2ccc(C(=O)NC(CCC(=O)O)C(=O)O)cc2)c(=O)[nH]1 (stereo not given)
inactive: dose: 6.25 mg/kg/injection, schedule: Q01DX005 (ip), vehicle: Klucel (hydroxypropylcellulose) (HPC) 100 % of control and 102 % of control | dose: 12.5 mg/kg/injection, schedule: Q01DX005 (ip), vehicle: Klucel (hydroxypropylcellulose) (HPC) 100 % of control and 102 % of control | dose: 25.0 mg/kg/injection, schedule: Q01DX005 (ip), vehicle: Klucel (hydroxypropylcellulose) (HPC) 99 % of control and 104 % of control | [6] 102 % of control and 98 % of control | [7] 99 % of control and 103 % of control | [8] 100 % of control and 102 % of control

COC(=O)c1nc(N)nc(C(=O)OC)c1C(=O)c1ccc(Cl)cc1Cl
inactive: [1] 95 % of control | [2] 100 % of control

C=C1C(O)C2OC(=O)C(=C)C2C(OC(=O)/C(C)=C/C)CC2(C)OC2C2OC12 (stereo not given)
inactive: dose: 4.0 mg/kg/injection, schedule: Q01DX005 (ip), vehicle: Klucel (hydroxypropylcellulose) (HPC) 96 % of control | dose: 8.0 mg/kg/injection, schedule: Q01DX005 (ip), vehicle: Klucel (hydroxypropylcellulose) (HPC) 103 % of control | dose: 16.0 mg/kg/injection, schedule: Q01DX005 (ip), vehicle: Klucel (hydroxypropylcellulose) (HPC) 100 % of control | dose: 32.0 mg/kg/injection, schedule: Q01DX005 (ip), vehicle: Klucel (hydroxypropylcellulose) (HPC) 116 % of control | [6] 115 % of control | dose: 64.0 mg/kg/injection, schedule: Q01DX005 (ip), vehicle: Klucel (hydroxypropylcellulose) (HPC) 116 % of control | [7] 109 % of control | [8] 103 % of control

O=C(Nc1cccc(NC(=O)c2nn[nH]n2)n1)c1nn[nH]n1
inactive: [6] 105 % of control | [7] 105 % of control | [8] 99 % of control

Nc1cc(=O)[nH]c(=S)n1-c1ccccn1
inactive: dose: 75.0 mg/kg/injection, schedule: Q01DX001 (ip), vehicle: saline with Tween-80 104 % of control | dose: 150.0 mg/kg/injection, schedule: Q01DX001 (ip), vehicle: saline with Tween-80 100 % of control | dose: 300.0 mg/kg/injection, schedule: Q01DX001 (ip), vehicle: saline with Tween-80 104 % of control

COc1cc(CC(=O)NCCc2ccsc2)c(CO)cc1OCc1ccccc1
inactive: [4] 99 % of control | [5] 101 % of control | dose: 400.0 mg/kg/injection, schedule: Q01DX001 (ip), vehicle: Klucel (hydroxypropylcellulose) (HPC) 101 % of control

NC(N)=NN=c1/c(=N\N=C(N)N)c2ccccc2/c1=N/N=C(N)N
inactive: dose: 25.0 mg/kg/injection, schedule: Q01DX001 (ip), vehicle: saline 99 % of control

Cc1cc2ccccc2c(N=Cc2cc(Br)cc(Br)c2O)c1C#N
inactive: dose: 100.0 mg/kg/injection, schedule: Q01DX001 (ip), vehicle: saline with Tween-80 95 % of control | dose: 200.0 mg/kg/injection, schedule: Q01DX001 (ip), vehicle: saline with Tween-80 98 % of control | dose: 400.0 mg/kg/injection, schedule: Q01DX001 (ip), vehicle: saline with Tween-80 112 % of control

CCNC(=O)OCc1c(-c2ccccc2)nc2n1CCS2
inactive: dose: 6.25 mg/kg/injection, schedule: Q01DX001 (ip), vehicle: Klucel (hydroxypropylcellulose) (HPC) 104 % of control | dose: 12.5 mg/kg/injection, schedule: Q01DX001 (ip), vehicle: Klucel (hydroxypropylcellulose) (HPC) 98 % of control and 115 % of control | dose: 25.0 mg/kg/injection, schedule: Q01DX001 (ip), vehicle: Klucel (hydroxypropylcellulose) (HPC) 114 % of control and 93 % of control | [3] 101 % of control and 106 % of control | dose: 75.0 mg/kg/injection, schedule: Q01DX001 (ip), vehicle: Klucel (hydroxypropylcellulose) (HPC) 108 % of control

CCOC(=O)NN(C(=O)OCC)C(C)(C)C(C)=O
inactive: dose: 100.0 mg/kg/injection, schedule: Q01DX001 (ip), vehicle: saline 100 % of control | dose: 200.0 mg/kg/injection, schedule: Q01DX001 (ip), vehicle: saline 100 % of control and 106 % of control | dose: 400.0 mg/kg/injection, schedule: Q01DX001 (ip), vehicle: saline 100 % of control and 108 % of control

C[n+]1c(/C=C\c2ccc(Cl)cc2)ccc2ccccc21
inactive: dose: 1.56 mg/kg/injection, schedule: Q01DX009 (ip), vehicle: saline with Tween-80 100 % of control | dose: 3.13 mg/kg/injection, schedule: Q01DX009 (ip), vehicle: saline with Tween-80 113 % of control
